Source: US20060183759A1, “Tissue transglutaminase inhibitors” (priority 2004, published 2006)
Counter-ions that a name gives are not always drawn. Like-named read-outs stand apart in the source and are kept apart here.

Legend:
[1] = target: T1, transglutaminase 2 (TGase 2) (Homo sapiens, UniProt P21980); assay: TGase 2 transpeptidase fluorescence assay: incorporation of KXD into N,N-dimethylated-casein (Std and FPC formats); assay type: biochemical; settings: standard format (Std): reactions terminated after 60 min, FI recorded, four-parameter fit
T1 sequence (P21980 1-687): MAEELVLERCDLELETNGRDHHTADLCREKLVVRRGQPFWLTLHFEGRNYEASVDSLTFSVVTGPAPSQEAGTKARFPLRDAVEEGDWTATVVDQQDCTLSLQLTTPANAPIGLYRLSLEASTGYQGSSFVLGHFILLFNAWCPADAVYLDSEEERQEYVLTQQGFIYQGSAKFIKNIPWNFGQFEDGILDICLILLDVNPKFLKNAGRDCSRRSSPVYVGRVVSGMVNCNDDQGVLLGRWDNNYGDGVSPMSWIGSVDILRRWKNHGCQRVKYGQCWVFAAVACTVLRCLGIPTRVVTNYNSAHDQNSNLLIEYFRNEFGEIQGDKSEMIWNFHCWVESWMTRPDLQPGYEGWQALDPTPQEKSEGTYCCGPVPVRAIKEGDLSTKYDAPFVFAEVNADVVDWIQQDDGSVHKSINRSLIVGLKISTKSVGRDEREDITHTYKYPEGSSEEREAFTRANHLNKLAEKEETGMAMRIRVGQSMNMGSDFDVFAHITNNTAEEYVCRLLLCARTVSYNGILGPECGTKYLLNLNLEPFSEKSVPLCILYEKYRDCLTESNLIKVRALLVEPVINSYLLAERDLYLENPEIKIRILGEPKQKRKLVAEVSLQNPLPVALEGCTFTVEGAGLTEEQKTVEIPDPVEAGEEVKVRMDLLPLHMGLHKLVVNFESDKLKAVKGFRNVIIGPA

[2] = target: T1, transglutaminase 2 (TGase 2); assay: as above; assay type: biochemical; settings: for TGase 2 inhibitory activity, SAR comment in words (relative to parent compound): qualitative comparison
Procedure: Transpeptidase activity was monitored as the increase in fluorescence intensity (FI) that accompanies incorporation of the dansylated Lys derivative, α-N-Boc-Lys-CH2-CH2-dansyl (KXD), into the protein substrate, N,N-dimethylated-casein (NMC).
Therefore, a method was used in which full progress curves (FPC) were recorded for the TGase-catalyzed reaction of KXD with NMC in the presence of inhibitor (Table 1-4). Reactions were initiated by enzyme addition to a solution of substrate and inhibitor. […] From such progress curves, IC50 values were calculated using the following equation: IC50=[I]/{(vc/vss)−1}. Progress curves recorded at several inhibitor concentrations were used to determine FPC IC50 values (Table 1-4).

[3] = full progress curves (FPC), IC50=[I]/{(vc/vss)−1}, from steady-state velocity, read-out: IC50 (μM, FPC)
[4] = summary of FPC values, read-out: FPC IC50 values

Structure (SMILES)	IC50 [1] [µM]	TGase 2 inhibitory activity, SAR comment in words (relative to parent compound) [2]	IC50 [2, 3] [µM]	IC50 [2, 4] [µM]
NNC(=O)CSc1nc2ccccc2c(=O)n1-c1ccccc1 [986-03, (4-Oxo-3-phenyl-3,4-dihydroquinazolin-2-ylsulfanyl)acetic acid hydrazide]	18	decreased activity		
COc1cccc(-c2csc3nc(SCC(=O)NN)n(-c4cccc(F)c4)c(=O)c23)c1 [986-32, [3-(3-Fluorophenyl)-5-(3-methoxyphenyl)-4-oxo-3,4-dihydrothieno[2,3-d]pyrimidin-2-ylsulfanyl]acetic acid hydrazide]	0.21		0.14	< 0.16
NNC(=O)CSc1nc2scc(-c3ccccc3)c2c(=O)n1-c1ccccc1F [986-18, [3-(2-Fluorophenyl)-4-oxo-5-phenyl-3,4-dihydrothieno[2,3-d]pyrimidin-2-ylsulfanyl]acetic acid hydrazide]	0.5		0.16	
NNC(=O)CSc1nc2scc(-c3ccccc3)c2c(=O)n1-c1ccc(F)cc1 [986-07, [3-(4-Fluorophenyl)-4-oxo-5-phenyl-3,4-dihydrothieno[2,3-d]pyrimidin-2-ylsulfanyl]acetic acid hydrazide]	1.3		0.32	
NNC(=O)CSc1nc2scc(-c3ccccc3)c2c(=O)n1-c1cccc(F)c1 [986-19, [3-(3-Fluorophenyl)-4-oxo-5-phenyl-3,4-dihydrothieno[2,3-d]pyrimidin-2-ylsulfanyl]acetic acid hydrazide]	0.25		0.18	< 0.16
NNC(=O)CSc1nc2scc(-c3ccccc3)c2c(=O)n1-c1cc(F)ccc1F [986-26, [3-(2,5-Difluorophenyl)-4-oxo-5-phenyl-3,4-dihydrothieno[2,3-d]pyrimidin-2-ylsulfanyl]acetic acid hydrazide]	0.59		0.23	
NNC(=O)CSc1nc2scc(-c3ccccc3)c2c(=O)n1-c1cc(F)cc(F)c1 [986-27, [3-(3,5-Difluorophenyl)-4-oxo-5-phenyl-3,4-dihydrothieno[2,3-d]pyrimidin-2-ylsulfanyl]acetic acid hydrazide]	0.48		0.22	
Cc1sc2nc(SCCC(=O)NN)n(-c3ccccc3)c(=O)c2c1-c1ccccc1 [986-22, 3-(6-Methyl-4-oxo-3,5-diphenyl-3,4-dihydrothieno[2,3-d]pyrimidin-2-ylsulfanyl)propionic acid hydrazide]	1.3	diminished activity		
NNC(=O)CSc1nc2scc(-c3ccccc3)c2c(=O)n1-c1ccccc1 [986-01, (4-Oxo-3,5-diphenyl-3,4-dihydro-thieno[2,3-d]pyrimidin-2-ylsulfanyl)acetic acid hydrazide]	0.8		0.25	
Cc1sc2nc(SCC(=O)NN)n(-c3ccccc3)c(=O)c2c1-c1ccccc1 [986-13, (6-Methyl-4-oxo-3,5-diphenyl-3,4-dihydrothieno[2,3-d]pyrimidin-2-ylsulfanyl)acetic acid hydrazide]	1.5	increased activity	0.16	< 0.16
NNC(=O)CSc1nc2scc(-c3ccc(F)cc3)c2c(=O)n1-c1ccccc1 [986-08, [5-(4-Fluorophenyl)-4-oxo-3-phenyl-3,4-dihydrothieno[2,3-d]pyrimidin-2-ylsulfanyl]acetic acid hydrazide]	0.8		0.29	
NNC(=O)CSc1nc2sc(-c3ccccc3)cc2c(=O)n1-c1ccccc1 [986-29, (4-Oxo-3,6-diphenyl-3,4-dihydrothieno[2,3-d]pyrimidin-2-ylsulfanyl)acetic acid hydrazide]	> 20	loss of inhibitory activity		
NNC(=O)COc1nc2scc(-c3ccccc3)c2c(=O)n1-c1ccccc1 [986-30, (4-Oxo-3,5-diphenyl-3,4-dihydrothieno[2,3-d]pyrimidin-2-yloxy)acetic acid hydrazide]	4.5	decreased activity		
COc1cccc(-n2c(SCC(=O)NN)nc3scc(-c4ccccc4)c3c2=O)c1 [986-21, [3-(3-Methoxyphenyl)-4-oxo-5-phenyl-3,4-dihydrothieno[2,3-d]pyrimidin-2-ylsulfanyl]acetic acid hydrazide]	0.82		0.47	
CN(CC(=O)NN)c1nc2scc(-c3ccccc3)c2c(=O)n1-c1ccccc1 [986-06, [Methyl-(4-oxo-3,5-diphenyl-3,4-dihydrothieno[2,3-d]pyrimidin-2-yl) -amino]acetic acid hydrazide]	> 20			
NNC(=O)CSc1nc2scc(-c3ccc(F)cc3)c2c(=O)n1-c1ccc(F)cc1 [986-09, [3,5-Bis-(4-fluorophenyl)-4-oxo-3,4-dihydrothieno[2,3-d]pyrimidin-2-ylsulfanyl]acetic acid hydrazide]	1.5		0.67	
NNC(=O)CSc1nc2scc(-c3ccccc3)c2c(=O)n1-c1cccc(Cl)c1 [986-24, [3-(3-Chlorophenyl)-4-oxo-5-phenyl-3,4-dihydrothieno[2,3-d]pyrimidin-2-ylsulfanyl]acetic acid hydrazide]	1.5			

The remaining lines, values ahead:

IC50 [1] [µM]	TGase 2 inhibitory activity, SAR comment in words (relative to parent compound) [2]	IC50 [2, 3] [µM]	IC50 [2, 4] [µM]	Structure (SMILES)
4.8	decreased inhibitory activity			CCN(CC)CCCOc1ccccc1-c1csc2nc(SCC(=O)NN)n(-c3cccc(F)c3)c(=O)c12 [986-35, [5-[2-(3-Diethylaminopropoxy)phenyl]-3-(3-fluorophenyl)-4-oxo-3,4-dihydrothieno[2,3-d]pyrimidin-2-ylsulfanyl]acetic acid hydrazide]
> 20				O=C(CSc1nc2scc(-c3ccc(F)cc3)c2c(=O)n1-c1ccc(F)cc1)NO [986-55, 2-[3,5-Bis-(4-fluorophenyl)-4-oxo-3,4-dihydrothieno[2,3-d]pyrimidin-2-ylsulfanyl]-N-hydroxyacetamide]
2.3				NNC(=O)CSc1nc2sc3c(c2c(=O)n1-c1cccc(F)c1)C(Cc1ccccc1)CCC3 (stereo not shown) [986-45, [5-Benzyl-3-(3-fluorophenyl)-4-oxo-3,4,5,6,7,8-hexahydrobenzo[4,5]thieno[2,3-d]pyrimidin-2-ylsulfanyl]acetic acid hydrazide]
1.4				NNC(=O)CSc1nc2scc(-c3ccccc3O)c2c(=O)n1-c1cccc(F)c1 [986-34, [3-(3-Fluorophenyl)-5-(2-hydroxyphenyl)-4-oxo-3,4-dihydrothieno[2,3-d]pyrimidin-2-ylsulfanyl]acetic acid hydrazide]
0.93		0.17		NNC(=O)CSc1nc2sc3c(c2c(=O)n1-c1cccc(F)c1)C(c1ccccc1)CCC3 (stereo not shown) [986-44, [3-(3-Fluorophenyl)-4-oxo-5-phenyl-3,4,5,6,7,8-hexahydrobenzo[4,5]thieno[2,3-d]pyrimidin-2-ylsulfanyl]acetic acid hydrazide]
> 10				NC(=O)CSc1nc2scc(-c3ccccc3F)c2c(=O)n1-c1cccc(F)c1 [986-53, 2-[3-(3-Fluorophenyl)-5-(2-fluorophenyl)-4-oxo-3,4-dihydrothieno[2,3-d]pyrimidin-2-ylsulfanyl]acetamide]
5.3				NCC(=O)CSc1nc2scc(-c3ccccc3)c2c(=O)n1-c1cccc(F)c1 [986-56, 2-(3-Amino-2-oxo-propylsulfanyl)-3-(3-fluorophenyl)-5-phenyl-3H-thieno[2,3-d]pyrimidin-4-one hydrochloride]
> 20				CNC(=O)CSc1nc2scc(-c3ccc(F)cc3)c2c(=O)n1-c1ccc(F)cc1 [986-52, 2-[3,5-Bis-(4-fluorophenyl)-4-oxo-3,4-dihydrothieno[2,3-d]pyrimidin-2-ylsulfanyl]-N-methylacetamide]
